Reference: patent publication US20220169629A1, “PESTICIDALLY ACTIVE DIAZINE-AMIDE COMPOUNDS” (SYNGENTA CROP PROTECTION AG, priority 2019, published 2022)

Tests used:
Format in all cases: in vivo
[1] = tested on: Diabrotica balteata (corn root worm); experiment: Example B1: Diabrotica balteata (corn root worm), sprayed maize sprouts, L2 larvae; conditions: 96 h, application rate of 200 ppm, 4 days after infestation, L2 larvae on maize sprouts, read-out: control in at least one of the two categories (mortality or growth inhibition)
Protocol: Example B1: Diabrotica Balteata (Corn Root Worm)
Maize sprouts placed onto an agar layer in 24-well microtiter plates were treated with aqueous test solutions prepared from 10′000 ppm DMSO stock solutions by spraying. After drying, the plates were infested with L2 larvae (6 to 10 per well). The samples were assessed for mortality and growth inhibition in comparison to untreated samples 4 days after infestation.

[2] = tested on: Chilo suppressalis (striped rice stemborer); experiment: Example B4: Chilo suppressalis (striped rice stemborer), artificial diet, L2 larvae; conditions: 144 h, application rate of 200 ppm, 6 days after infestation, L2 larvae on artificial diet, read-out: control in at least one of the three categories (mortality, anti-feeding or growth inhibition)
[3] = tested on: Plutella xylostella (diamond back moth); experiment: Example B5: Plutella xylostella (diamond back moth), artificial diet, 24-well, eggs; conditions: 192 h, application rate of 200 ppm, 8 days after infestation, read-out: control in at least one of the two categories (mortality or growth inhibition)
Protocol: Example B5: Plutella xylostella (Diamond Back Moth)
24-well microtiter plates with artificial diet were treated with aqueous test solutions prepared from 10′000 ppm DMSO stock solutions by pipetting. After drying, Plutella eggs were pipetted through a plastic stencil onto a gel blotting paper and the plate was closed with it. The samples were assessed for mortality and growth inhibition in comparison to untreated samples 8 days after infestation.

[4] = tested on: Myzus persicae (green peach aphid); experiment: Example B6: Myzus persicae (green peach aphid), intrinsic activity; conditions: 120 h, test rate of 12 ppm, 5 days after infestation, sucrose solution, infested pea seedlings
From the text: Example B6: Myzus persicae (Green Peach Aphid): Intrinsic Activity
Test compounds prepared from 10′000 ppm DMSO stock solutions were applied by pipette into 24-well microtiter plates and mixed with sucrose solution. The plates were closed with a stretched Parafilm. A plastic stencil with 24 holes was placed onto the plate and infested pea seedlings were placed directly on the Parafilm. The infested plate was closed with a gel blotting paper and another plastic stencil and then turned upside down. The samples were assessed for mortality 5 days after infestation.

[5] = tested on: Spodoptera littoralis (Egyptian cotton leaf worm); experiment: Example B7: Spodoptera littoralis (Egyptian cotton leaf worm), sprayed cotton leaf discs, L1 larvae; conditions: foliar, 72 h, application rate of 200 ppm, 3 days after infestation, L1 larvae on cotton leaf discs, read-out: control in at least one of the three categories (mortality, anti-feeding or growth inhibition)
[6] = tested on: Spodoptera littoralis (Egyptian cotton leaf worm); experiment: Example B8: Spodoptera littoralis (Egyptian cotton leaf worm), uptake by lettuce roots from agar; conditions: 144 h, test rate of 12.5 ppm, 6 days after infestation, compound absorbed by lettuce roots, read-out: control in at least one of the three categories (mortality, anti-feeding, or growth inhibition)
From the text: Example B8: Spodoptera littoralis (Egyptian Cotton Leaf Worm)
Test compounds were applied by pipette from 10′000 ppm DMSO stock solutions into 24-well plates and mixed with agar. Lettuce seeds were placed onto the agar and the multi well plate was closed by another plate which contained also agar. After 7 days the compound was absorbed by the roots and the lettuce grew into the lid plate. The lettuce leaves were then cut off into the lid plate. Spodoptera eggs were pipetted through a plastic stencil onto a humid gel blotting paper and the lid plate was closed with it. The samples were assessed for mortality, anti-feedant effect and growth inhibition in comparison to untreated samples 6 days after infestation.

[7] = tested on: Myzus persicae (green peach aphid); experiment: Example B9: Myzus persicae (green peach aphid), 96-well sucrose solution; conditions: 120 h, application rate of 50 ppm, 5 days after infestation
From the text: Example B9: Myzus persicae (Green Peach Aphid)
Test compounds prepared from 10′000 ppm DMSO stock solutions were applied by a liquid handling robot into 96-well microtiter plates and mixed with a sucrose solution. Parafilm was stretched over the 96-well microtiter plate and a plastic stencil with 96 holes was placed onto the plate. Aphids were sieved into the wells directly onto the Parafilm. The infested plates were closed with a gel blotting card and a second plastic stencil and then turned upside down. The samples were assessed for mortality 5 days after infestation.

[8] = tested on: Plutella xylostella (diamondback moth); experiment: Example B10: Plutella xylostella (diamondback moth), 96-well artificial diet; conditions: 216 h, application rate of 500 ppm, 9 days after infestation, eggs/L1 larvae
Protocol: Example B10: Plutella xylostella (Diamondback Moth)
96-well microtiter plates containing artificial diet were treated with aqueous test solutions, prepared from 10′000 ppm DMSO stock solutions, by a liquid handling robot. After drying, eggs (˜30 per well) were infested onto a netted lid which was suspended above the diet. The eggs hatch and L1 larvae move down to the diet. The samples were assessed for mortality 9 days after infestation.

[9] = tested on: Euschistus heros (neotropical brown stink bug); experiment: Example B2: Euschistus heros (neotropical brown stink bug), sprayed soybean leaves, N2 nymphs; conditions: 120 h, application rate of 200 ppm, 5 days after infestation, N2 nymphs on soybean leaves, read-out: control in at least one of the two categories (mortality or growth inhibition)
Protocol: Example B2: Euschistus heros (Neotropical Brown Stink Bug)
Soybean leaves on agar in 24-well microtiter plates were sprayed with aqueous test solutions prepared from 10′000 ppm DMSO stock solutions. After drying the leaves were infested with N2 nymphs. The samples were assessed for mortality and growth inhibition in comparison to untreated samples 5 days after infestation.

[10] = tested on: Bemisia tabaci (cotton white fly); experiment: Example B3: Bemisia tabaci (cotton white fly), feeding/contact activity; conditions: foliar, 144 h, application rate of 200 ppm, 6 days after incubation, adult white flies on cotton leaf discs
Protocol: Example B3: Bemisia tabaci (Cotton White Fly): Feeding/Contact Activity
Cotton leaf discs were placed on agar in 24-well microtiter plates and sprayed with aqueous test solutions prepared from 10′000 ppm DMSO stock solutions. After drying the leaf discs were infested with adult white flies. The samples were checked for mortality 6 days after incubation.

[11] = tested on: Tetranychus urticae (two-spotted spider mite); experiment: Example B11: Tetranychus urticae (two-spotted spider mite), feeding/contact activity; conditions: foliar, 192 h
Protocol: Example B11: Tetranychus urticae (Two-Spotted Spider Mite): Feeding/Contact Activity
Bean leaf discs on agar in 24-well microtiter plates were sprayed with aqueous test solutions prepared from 10′000 ppm DMSO stock solutions. After drying the leaf discs were infested with a mite population of mixed ages. The samples were assessed for mortality on mixed population (mobile stages) 8 days after infestation.

CC(NC(=O)c1cc(Br)cc(C(F)(F)F)c1)c1nccnc1-c1ncc(OC(F)F)cn1 (stereo not shown) [Compound P23, 3-bromo-N-[1-[3-[5-(difluoromethoxy)pyrimidin-2-yl]pyrazin-2-yl]ethyl]-5-(trifluoromethyl)benzamide]
≥ 80%: percent control (mortality or growth inhibition) at 200 ppm [1] | control at 200 ppm [2] | percent control (mortality or growth inhibition) at 200 ppm [3] | mortality at 12 ppm [4] | percent control (mortality, anti-feeding or growth inhibition) at 200 ppm [5] | percent control (mortality, anti-feeding or growth inhibition) at 12.5 ppm [6] | mortality at 50 ppm [7] | mortality at 500 ppm [8]

CC(NC(=O)c1cc(Br)cc(C(F)(F)F)c1)c1nccnc1-c1ncc(OCC(F)F)cn1 (stereo not shown) [Compound P35, 3-bromo-N-[1-[3-[5-(2,2-difluoroethoxy)pyrimidin-2-yl]pyrazin-2-yl]ethyl]-5-(trifluoromethyl)benzamide]
≥ 80%: percent control (mortality or growth inhibition) at 200 ppm [1] | percent control (mortality or growth inhibition) at 200 ppm [9] | mortality at 200 ppm [10] | control at 200 ppm [2] | percent control (mortality or growth inhibition) at 200 ppm [3] | mortality at 12 ppm [4] | percent control (mortality, anti-feeding or growth inhibition) at 200 ppm [5] | percent control (mortality, anti-feeding or growth inhibition) at 12.5 ppm [6]

CC(NC(=O)c1cc(OC(F)F)cc(C(F)(F)F)c1)c1nccnc1-c1ncc(OCC(F)F)cn1 (stereo not shown) [Compound P28, N-[1-[3-[5-(2,2-difluoroethoxy)pyrimidin-2-yl]pyrazin-2-yl]ethyl]-3-(difluoromethoxy)-5-(trifluoromethyl)benzamide]
≥ 80%: percent control (mortality or growth inhibition) at 200 ppm [1] | percent control (mortality or growth inhibition) at 200 ppm [9] | control at 200 ppm [2] | percent control (mortality or growth inhibition) at 200 ppm [3] | mortality at 12 ppm [4] | percent control (mortality, anti-feeding or growth inhibition) at 200 ppm [5] | mortality at 50 ppm [7] | mortality at 500 ppm [8]

CC(NC(=O)c1cc(OCC(F)F)cc(C(F)(F)F)c1)c1nccnc1-c1ccc(OCC(F)F)cn1 (stereo not shown) [Compound P16, 3-(2,2-difluoroethoxy)-N-[1-[3-[5-(2,2-difluoroethoxy)-2-pyridyl]pyrazin-2-yl]ethyl]-5-(trifluoromethyl)benzamide]
≥ 80%: control at 200 ppm [2] | percent control (mortality or growth inhibition) at 200 ppm [3] | mortality at 500 ppm [8] | mortality at 200 ppm [11]
